From patent publication US20120128715A1, “METHOD FOR STIMULATING THE IMMUNE RESPONSE OF NEWBORNS” (3M INNOVATIVE PROPERTIES COMPANY, priority 2004, published 2012)
No end group written: not given here. 2,3‑bisacyloxypropyl = 2,3-bisacyloxypropyl group on the Cys sulfur

How the values were obtained:
TLR8 and TLR7 [1] = assay: TLR agonism and TLR8 selectivity (TLR-mediated activity); type: cell-based; conditions: for concentration inducing TLR8 activity as fraction of that necessary to induce TLR7-mediated activity: TLR8 vs TLR7 selectivity; for TLR8 selectivity: named as examples of TLR8-selective compounds
Description: The TLR agonism for a particular compound may be assessed in any suitable manner.
Conversely, a compound may be identified as not acting as an agonist of a specified TLR if, when used to perform an assay designed to detect biological activity mediated by the specified TLR, the compound fails to elicit a threshold increase in the biological activity. […] An assay may or may not be performed in conjunction with the appropriate control.
A significant degree may be, for example, inducing activity mediated by one TLR (e.g., TLR8) when administered at half the concentration necessary to induce activity through another TLR (e.g., TLR7).
Assays employing HEK293 cells transfected with an expressible TLR structural gene may use a threshold of, for example, at least a three-fold increase in a TLR-mediated biological activity (e.g., NFκB activation) when the compound is provided at a concentration of, for example, from about 1 μM to about 10 μM for identifying a compound as an agonist of the TLR transfected into the cell. However, different thresholds and/or different concentration ranges may be suitable in certain circumstances. Also, different thresholds may be appropriate for different assays.

[2] = system: newborn cord blood and adult peripheral blood; assay: TLR ligand-induced TNF-α release in whole blood ex vivo (ELISA); type: cell-based, human; conditions: for ligand-induced TNF-α release in newborn cord blood compared with adult peripheral blood: 5-hour incubation, FIGS. 1A-1E
Method: Peripheral blood was collected from healthy adult volunteers (N=26 individual volunteers; mean age 27 years; 45% male, 55% female) and newborn cord blood (N=63; mean gestational age 39 weeks; 43% male, 57% female) collected immediately after cesarean section delivery (epidural anesthesia) of the placenta or from the umbilical cord immediately after vaginal birth but prior to delivery of the placenta. Births at which antibiotics were administered during labor and/or delivery, and births to HIV-positive mothers were excluded. Human experimentation guidelines of the US Department of Health and Human Services and the Brigham & Women's Hospital were observed, following protocols approved by the local Institutional Review Board. Blood was anticoagulated with 129 mM sodium citrate (Becton Dickinson, Franklin Lakes, N.J.). Hemocytes were collected by centrifugation of blood, followed by washing three times with Hank's Balanced Salt Solution (HBSS) buffer without magnesium or calcium (Gibco BRL, Grand Island, N.Y.) and then resuspension in either autologous or heterologous 100% plasma.
TLR ligands included the synthetic triacylated BLP (tBLP) Pam3-CSSNA (Bachem Bioscience, King of Prussia, Pa.) corresponding to the N-terminus of a BLP from E. coli B/r (Biesert et al. 1987. Eur J Biochem 162:651), the synthetic diacylated BLP macrophage-activating lipopeptide-2 (MALP; S-(2,3-bisAcyloxypropyl)-cysteine-[…] (SEQ ID NO: 5); Alexis Biochemicals, Lausen, Switzerland) from Mycoplasma fermentans (Muhlradt et al. 1997. J Exp Med. 185:1951), ultrapure Re 595 LPS from Salmonella minnesota (List Biologicals, Campbell, Calif.), and the IRM compounds imiquimod (3M Pharmaceuticals, Northridge, Calif.), and resiquimod (InvivoGen, San Diego, Calif.). Specificity of individual TLR ligands for their cognate receptors was confirmed using either NF-kB luciferase reporter and TLR co-transfected Human Embryonic Kidney (HEK) 293 cells or a neutralizing mAb to TLR2 (Levy, O. et al. 2003. Infect Immun 71:6344), as previously described.
After incubation of TLR ligands in blood or monocyte suspensions for 5 hours at 37° C. with end-over-end rotation, samples were diluted with five volumes of ice-cold RPMI medium (Gibco BRL) and centrifuged at 1,000×g at 4° C. for 5 minutes. The supernatant was recovered and stored at −20° C. until assay of TNF-α by ELISA (R&D Systems, Minneapolis, Minn.).
TLR ligand-induced TNF-α release in whole human blood ex vivo as described above in Example 1. The single stranded ribonucleic acid (ssRNA) tested in this example was ssRNA40/LyoVec purchased from InvivoGen (San Diego, Calif.) comprised of single-stranded GU-rich oligonucleotide (5′-GsCsCsCsGsUsCsUsGsUsUsGsUsGsUsGsAsCsUsC-3′ (SEQ ID NO:1); where “s” depicts a phosphothioate linkage complexed with the cationic lipid LyoVec that protects the RNA from degradation and enhance is uptake by immune cells. The guanosine analog loxoribine (TLR7 ligand) was purchased from InvivoGen.

TLR8 and TLR7 [3] = conditions: cited from earlier work
[4] = system: neonatal myeloid dendritic cells (mDCs); assay: CD40 expression on myeloid dendritic cells in whole blood (flow cytometry); type: cell-based, human; conditions: imiquimod 250 μM, resiquimod 50 μM, 19 hours; FIGS. 15A-15D
Method: After lysis of red blood cells and fixation, mDCs were identified as lint-/HLA-DR+/CD11c+ cells using four color flow cytometry (BD BioSciences) and CD40 was measured using a PE-conjugated mAb.
Newborn cord or adult peripheral blood was incubated with TLR agonists at 37° C. for 19 hours. mDCs were identified by flow cytometry and the level of expression of CD40 was measured using a PE-conjugated mAb.
CD40 expression on mDCs was studied in whole newborn cord blood, in comparison to those of adult peripheral blood, using four-color flow cytometry (BD Biosciences). mDCs were identified as lineage 1-/HLA-DR+/CD11c+ cells. Upregulation of surface CD40 expression was measured using a phycoerythrin-conjugated anti-CD40 mAb.

| Compound | concentration inducing TLR8 activity as fraction of that necessary to induce TLR7-mediated activity (TLR8 and TLR7 [1]) | other results |
| --- | --- | --- |
| CC(C)c1nc2c(N)nc3ccccc3c2s1 [2-(1-methylethyl)thiazolo[4,5-c]quinolin-4-amine] | less than one-fifth |  |
| CCCc1nc2c(N)nc3cc(OCCOCCNC(=O)OC(C)(C)C)ccc3c2s1 [tert-butyl 2{-2-[(4-amino-2-propyl[1,3]thiazolo[4,5-c]quinolin-7-yl)oxy]ethoxy}ethylcarbamate] | less than one-fifth |  |
| S-(2,3-bisAcyloxypropyl)-cysteine-GNNDESNISFKEK (C(2,3‑bisacyloxypropyl)GNNDESNISFKEK; also: acyl groups not given here) [MALP, synthetic diacylated BLP from Mycoplasma fermentans (TLR2/6)] |  | ligand-induced TNF-α release in newborn cord blood compared with adult peripheral blood [2]: impaired |
| CCCc1nc2c(N)nc3cccnc3c2s1 [2-propylthiazolo[4,5-c][1,5]naphthyridin-4-amine] | less than one-fifth |  |
| CCCc1nc2c(N)nc3cc(OCCCNS(=O)(=O)c4cccc5c(N(C)C)cccc45)ccc3c2s1 [N-{3-[(4-amino-2-propyl[1,3]thiazolo[4,5-c]quinolin-7-yl)oxy]propyl}-5-(dimethylamino)naphthalene-1-sulfonamide] | one half to about one-fifth |  |
| CCOCc1nc2c(N)nc3c(c2n1CC(C)(C)O)CCCC3 [IRM3, 4-amino-2-(ethoxymethyl)-α,α-dimethyl-6,7,8,9-tetrahydro-1H-imidazo[4,5-c]quinoline-1-ethanol] |  | TLR agonism (which TLR) (TLR8 and TLR7 [3]): agonist of both TLR7 and TLR8 |
| CCCc1nc2c(N)nc3cc(-c4cccc(NS(C)(=O)=O)c4)ccc3c2s1 [N-[3-(4-amino-2-propylthiazolo[4,5-c]quinolin-7-yl)phenyl]methanesulfonamide] | less than one-fifth |  |
| CCCc1nc2c(N)nc3cc(OCCCCCCNS(C)(=O)=O)ccc3c2s1 [N-{6-[(4-amino-2-propyl[1,3]thiazolo[4,5-c]quinolin-7-yl)oxy]hexyl}methanesulfonamide] | less than one-fifth |  |
| CC(C)Cc1nc2c(N)nc3ccccc3c2s1 [2-(2-methylpropyl)thiazolo[4,5-c]quinolin-4-amine] | less than one-fifth |  |
| CCCc1nc2c(N)nc3ccc(N)cc3c2s1 [2-propylthiazolo[4,5-c]quinoline-4,8-diamine] |  | TLR8 selectivity (TLR8 and TLR7 [1]): TLR8-selective |
| CCCCc1nc2c(N)nc3cccnc3c2s1 [2-butylthiazolo[4,5-c][1,5]naphthyridin-4-amine] |  | TLR8 selectivity (TLR8 and TLR7 [1]): TLR8-selective |
| CCCc1nc2c(N)nc3cc(F)ccc3c2s1 [7-fluoro-2-propylthiazolo[4,5-c]quinolin-4-amine] | less than one-fifth |  |
| Pam3-CSSNA [tBLP] |  | ligand-induced TNF-α release in newborn cord blood compared with adult peripheral blood [2]: impaired; ligand-induced TNF-α release in cord blood compared with adult controls ([2]; cord blood from both Caesarian-section and vaginal deliveries, 5 hours, FIGS. 2A-2C): impaired; magnitude and kinetics of ligand-induced TNF-α release in newborn cord vs. adult peripheral blood ([2]; time course, FIGS. 3A-3C): lower magnitude, but similar kinetics |
| CCCc1nc2c(N)nc3ccc(C)cc3c2s1 [8-methyl-2-propylthiazolo[4,5-c]quinolin-4-amine] | less than one-fifth |  |
| CC(C)Cn1cnc2c(N)nc3ccccc3c21 [imiquimod] |  | upregulation of CD40 expression in neonatal mDCs [4]: does not; ligand-induced TNF-α release in newborn cord blood compared with adult peripheral blood [2]: impaired; TLR agonism (which TLR) (TLR8 and TLR7 [3]): agonist at TLR7 receptors |
| CCCc1nc2c(N)nc3cc(OCCOCCCl)ccc3c2s1 [7-[2-(2-chloroethoxy)ethoxy]-2-propyl[1,3]thiazolo[4,5-c]quinolin-4-amine] | less than one-fifth |  |
| CCCc1nc2c(N)nc3cc(OCCNC(=O)OC(C)(C)C)ccc3c2s1 [tert-butyl 2-[(4-amino-2-propyl[1,3]thiazolo[4,5-c]quinolin-7-yl)oxy]ethylcarbamate] | one half to about one-fifth |  |
| CCCc1nc2c(N)nc3cc(OCCCNC(=O)OC(C)(C)C)ccc3c2s1 [tert-butyl 3-[(4-amino-2-propyl[1,3]thiazolo[4,5-c]quinolin-7-yl)oxy]propylcarbamate] | less than one-fifth |  |
| CCOCc1nc2c(N)nc3ccccc3c2n1CC(C)(C)O [resiquimod] |  | potency relative to imiquimod (TLR8 and TLR7 [1]; FIG. 11): ~100 fold |
